Assay results: article PMC5769417, “Single- and Multiple-Dose Trials to Determine the Pharmacokinetics, Safety, Tolerability, and Sex Effect of Oral Ginsenoside Compound K in Healthy Chinese Volunteers” (Frontiers in Pharmacology, 2018)
Where two headings read alike, the source gives them in different places.

Experiments:
[1] = Multiple-dose trial, plasma pharmacokinetics; format: in vivo, human
Method: Multiple-dose pharmacokinetics: […] Multiple-dose pharmacokinetics: […] All samples were preserved at −70°C and analyzed with a LC-MS/MS (API 4000 LC-MS/MS, ABI Company, Foster City, CA, USA) at the Institute of Clinical Pharmacology, Central South University (Changsha, China). […] An aqueous solution of a stable internal standard (IS for CK: digoxin, Shijiaoke Biological Technology Co. Ltd., Beijing, China; IS for PPD: coumarin, Sigma-Aldrich, St. Louis, USA) and 1 M phosphate buffer were added to 0.5 ml of thawed sample, and analytical standards and quality control (QC) samples were prepared in the same matrix. All samples were treated with 2 ml of methyl tert-butyl ether (MTBE, CNW technologies GmbH, Duesseldorf, Germany) to precipitate the bulk of plasma proteins. After mechanical shock by mixing for 10 min and a subsequent centrifugation (4,000 rpm, 4°C, 10 min), 1.4 ml of the supernatant was transferred and blow-dried with nitrogen in a water bath at 40°C. Lastly, the residue was dissolved in 100 μl of mobile phase and then was subjected to a mechanical shock by mixing, and centrifuged. The supernatant was subsequently injected into the column for analysis. […] Accuracy and precision of the assay were determined by evaluating the performance of the assay controls. Over the quantification range, the accuracy of the QC samples varied from 85 to 115% and the intra- and inter-assay imprecision was <15%. […] The area under the curve (AUC) from time zero to the last time point (AUClast) and the AUC extrapolated to infinity (AUCinf) were calculated using the linear trapezoidal rule. The slope (elimination rate constant, K) of the terminal phase of the plasma concentration-time profile was determined, using a weighting factor of 1, by the method of least squares (log-linear regression of at least three data points). The t1/2 was estimated as (ln2)/K. […] The apparent volume of distribution (V/F) was equal to (CL/F)/K. The mean residence time (MRT) was calculated as the area under the first moments curve (AUMC) divided by AUC. The dose-normalized PK parameters e.g., Cmax/D and AUClast/D, were obtained by dividing each PK result by the administered dose. The cumulative excretion rate was calculated as the amount of unchanged drug in the urine over a time interval divided by the dose and was expressed as thousand points (‰). On day 15 in the multiple-dose trial, the PK parameters, such as t1/2, CL/F, and V/F at steady state were calculated using the same method as that used for the single-dose trial. In addition, the Tmax at steady state (Tmax,ss), Cmax at steady state (Cmax,ss), and Cmin,ss were obtained from experimental observation after the steady state during the multiple-dose trial. […] The average steady-state drug concentration (Cavg) is calculated as AUCτ/τ, and the fluctuation ratio was calculated as (Cmax,ss − Cmin,ss)/Cavg. The accumulation index was calculated using dosing interval and elimination rate constant as in the following equation: 1/(1 − e^−Kτ).

Sprague Dawley (SD) rats = conditions: cited from earlier work
[2] = both sexes, human, plasma, po, 100 mg, 100 mg oral after breakfast, Day 1
[3] = both sexes, human, plasma, po, 100 mg, 100 mg qd oral after breakfast, Day 15
[4] = both sexes, human, plasma, po, 200 mg, 200 mg oral after breakfast, Day 1
[5] = both sexes, human, plasma, po, 200 mg, 200 mg qd oral after breakfast, Day 15
[6] = both sexes, human, plasma, po, 400 mg, 400 mg oral after breakfast, Day 1
[7] = both sexes, human, plasma, po, 400 mg, 400 mg qd oral after breakfast, Day 15

`CC(C)=CCC[C@](C)(OC1O[C@H](CO)[C@@H](O)[C@H](O)[C@H]1O)[C@H]1CC[C@]2(C)[C@@H]1[C@H](O)C[C@@H]1[C@@]3(C)CC[C@H](O)C(C)(C)[C@@H]3CC[C@]12C` (stereo partly drawn) [CK, 20-O-beta-D-glucopyranosyl-20(S)-protopanaxadiol] gave an MRT last ([1]; both sexes, human, plasma, 400 mg oral after breakfast, Day 1) of 12.5 ± 1 h, an AUC ([1]; both sexes, human, plasma, 400 mg qd oral after breakfast, Day 15, read-out: AUCτ (zero to 24 h)) of 41400 ± 10400 ng·h/mL and a concentration at 15 day ([1]; both sexes, human, plasma, 400 mg qd oral after breakfast, Day 15, steady state, read-out: Cmin) of 1730 ± 432 ng/mL. It also gave a half-life ([1]; both sexes, human, plasma, oral, 400 mg, Day 1, 100, 200 or 400 mg, read-out: mean t1/2 across the dose groups) of 23.4 to 26.1 h, a Tmax ([1]; both sexes, human, plasma, oral, 400 mg, Day 1, 100, 200 or 400 mg, read-out: median Tmax across the dose groups) of 2.5 to 3 h and a Tmax ([1]; both sexes, human, plasma, oral, Day 1, all subjects, read-out: Tmax, median (range)) of 3 h. For the same molecule, the half-life ([1]; both sexes, human, plasma, oral, Day 1, all subjects, read-out: t1/2 (converted)) was 24.9 ± 5.8 h, the Tmax ([1]; both sexes, human, plasma, oral, Day 15, all subjects, read-out: Tmax, median (range)) was 3.5 h and the half-life ([1]; both sexes, human, plasma, oral, Day 15, all subjects, read-out: t1/2 (converted)) was 35.3 ± 9.6 h. The AUC(0-inf) [1, 2] was 9070 ± 2060 ng·h/mL, the AUC(0-t) [1, 2] was 8880 ± 1990 ng·h/mL and the MRT inf [1, 2] was 14.6 ± 2.1 h. It also gave a Cmax ([1]; both sexes, human, plasma, po, 100 mg, 100 mg oral after breakfast, Day 1, read-out: Cmax) of 1120 ± 411 ng/mL, a half-life ([1]; both sexes, human, plasma, po, 100 mg, 100 mg oral after breakfast, Day 1, read-out: t1/2 (converted)) of 25.2 ± 5.6 h and an AUC(0-inf) [1, 3] of 11100 ± 3230 ng·h/mL. The AUC(0-t) [1, 3] was 10400 ± 3010 ng·h/mL, the MRT inf [1, 3] was 17 ± 2.2 h and the Cmax ([1]; both sexes, human, plasma, po, 100 mg, 100 mg qd oral after breakfast, Day 15, read-out: Cmax) was 934 ± 323 ng/mL. It also gave a Tmax ([1]; both sexes, human, plasma, po, 100 mg, 100 mg qd oral after breakfast, Day 15, read-out: Tmax, median (range)) of 3.8 h, a half-life ([1]; both sexes, human, plasma, po, 100 mg, 100 mg qd oral after breakfast, Day 15, read-out: t1/2 (converted)) of 34.6 ± 10.5 h and an AUC(0-inf) [1, 4] of 22700 ± 6350 ng·h/mL. For the same molecule, the AUC(0-t) [1, 4] was 22300 ± 6320 ng·h/mL, the MRT inf [1, 4] was 14.9 ± 2 h and the Cmax ([1]; both sexes, human, plasma, po, 200 mg, 200 mg oral after breakfast, Day 1, read-out: Cmax) was 2880 ± 984 ng/mL. For the same molecule, the Tmax ([1]; both sexes, human, plasma, po, 200 mg, 200 mg oral after breakfast, Day 1, read-out: Tmax, median (range)) was 3 h, the half-life ([1]; both sexes, human, plasma, po, 200 mg, 200 mg oral after breakfast, Day 1, read-out: t1/2 (converted)) was 23.4 ± 7.9 h and the AUC(0-inf) [1, 5] was 34000 ± 9060 ng·h/mL. It also gave an AUC(0-t) [1, 5] of 31600 ± 8130 ng·h/mL, an MRT inf [1, 5] of 16.1 ± 1.6 h and a Cmax ([1]; both sexes, human, plasma, po, 200 mg, 200 mg qd oral after breakfast, Day 15, read-out: Cmax) of 3180 ± 877 ng/mL. For the same molecule, the Tmax ([1]; both sexes, human, plasma, po, 200 mg, 200 mg qd oral after breakfast, Day 15, read-out: Tmax, median (range)) was 3.5 h, the half-life ([1]; both sexes, human, plasma, po, 200 mg, 200 mg qd oral after breakfast, Day 15, read-out: t1/2 (converted)) was 37.3 ± 12.3 h and the AUC(0-inf) [1, 6] was 44900 ± 11200 ng·h/mL. For the same molecule, the AUC(0-t) [1, 6] was 43900 ± 11100 ng·h/mL, the MRT inf [1, 6] was 15.2 ± 1.5 h and the Cmax ([1]; both sexes, human, plasma, po, 400 mg, 400 mg oral after breakfast, Day 1, read-out: Cmax) was 5060 ± 1650 ng/mL. The Tmax ([1]; both sexes, human, plasma, po, 400 mg, 400 mg oral after breakfast, Day 1, read-out: Tmax, median (range)) was 3 h, the half-life ([1]; both sexes, human, plasma, po, 400 mg, 400 mg oral after breakfast, Day 1, read-out: t1/2 (converted)) was 26.1 ± 3.3 h and the AUC(0-inf) [1, 7] was 59200 ± 13300 ng·h/mL. The AUC(0-t) [1, 7] was 55200 ± 12800 ng·h/mL, the MRT inf [1, 7] was 17.9 ± 1.8 h and the Cmax ([1]; both sexes, human, plasma, po, 400 mg, 400 mg qd oral after breakfast, Day 15, read-out: Cmax) was 5170 ± 1500 ng/mL. It also gave a half-life ([1]; both sexes, human, plasma, po, 400 mg, 400 mg qd oral after breakfast, Day 15, read-out: t1/2 (converted)) of 34.2 ± 5.3 h, a Tmax ([1]; female, human, plasma, oral, Day 1, Female, read-out: Tmax, median (range)) of 3 h and a half-life ([1]; female, human, plasma, oral, Day 1, Female, read-out: t1/2 (converted)) of 26.4 ± 6.2 h. For the same molecule, the Tmax ([1]; female, human, plasma, oral, Day 15, Female, read-out: Tmax, median (range)) was 3.5 h, the half-life ([1]; female, human, plasma, oral, Day 15, Female, read-out: t1/2 (converted)) was 36.3 ± 1.05 h and the Tmax ([1]; male, human, plasma, oral, Day 1, Male, read-out: Tmax, median (range)) was 3 h. The half-life ([1]; male, human, plasma, oral, Day 1, Male, read-out: t1/2 (converted)) was 23.3 ± 5.2 h, the Tmax ([1]; male, human, plasma, oral, Day 15, Male, read-out: Tmax, median (range)) was 3.5 h and the half-life ([1]; male, human, plasma, oral, Day 15, Male, read-out: t1/2 (converted)) was 34.3 ± 9.8 h. For the same molecule, the steady state reached ([1]; once daily) was “after the 7th administration”, the Accumulation index ([1]; overall) was ~2.66 and the “dose at which diarrhea symptom occurred” value (Sprague Dawley (SD) rats; long-term toxicity test, Sprague Dawley (SD) rats) was 150 mg/kg. The “No observed adverse effect level (NOAEL)” value (Sprague Dawley (SD) rats; rats) was 25.0 mg/kg.
